Results: patent publication US10681909B2, “Herbicidal triazoles” (FMC Corporation, priority 2014, dated 2020)

How the values were obtained:
radish, wild [1] = assay: Test D preemergence; assay type: in vivo, Raphanus raphanistrum; settings: for Plant response rating: Radish, Wild: scale 0 to 100
Excerpt: (§1) Seeds of plant species selected from bluegrass (annual bluegrass, Poa annua), blackgrass (Alopecurus myosuroides), canarygrass (Phalaris minor), chickweed (common chickweed, Stellaria media), galium (catchweed bedstraw, Galium aparine), bromegrass, down (downy bromegrass, Bromus tectorum), Russian thistle (Salsola kali), field poppy (Papaver rhoeas), field violet (Viola arvensis), foxtail, green (green foxtail, Setaria viridis), deadnettle (henbit deadnettle, Lamium amplexicaule), ryegrass, Ital. (Italian ryegrass, Lolium multiflorum), kochia (Kochia scoparia), lambsquarters (Chenopodium album), oilseed rape (Brassica napus), pigweed (Amaranthus retroflexus), chamomile (scentless chamomile, Matricaria inodora), speedwell (bird's-eye speedwell, Veronica persica), barley, spring (spring barley, Hordeum vulgare), wheat, spring (spring wheat, Triticum aestivum), buckwheat, wild (wild buckwheat, Polygonum convolvulus), wild mustard (Sinapis arvensis), oat, wild (wild oat, Avena fatua), radish, wild (wild radish, Raphanus raphanistrum), […]), barley, winter (winter barley, Hordeum vulgare), and wheat, winter (winter wheat, Triticum aestivum) were planted into a silt loam soil and treated preemergence with test chemicals formulated in a non-phytotoxic solvent mixture which included a surfactant. At the same time, these species were planted in pots containing Sunshine Redi-Earth® planting medium comprising spaghnum peat moss, vermiculite, starter nutrients and dolomitic limestone and treated with postemergence applications of the test chemicals formulated in the same manner. Plants ranged in height from 2 to 18 cm (1- to 4-leaf stage). Treated plants and controls were maintained in a controlled growth environment for 14 to 21 d after which time all species were compared to controls and visually evaluated. […] A dash (-) response means no test result.

galium [2] = assay: Test D preemergence; assay type: in vivo, Galium aparine; settings: for Plant response rating: Galium: scale 0 to 100
Excerpt: as §1

foxtail, green = assay: Test D preemergence; assay type: in vivo, Setaria viridis; settings: for Plant response rating: Foxtail, Green: scale 0 to 100
Excerpt: as §1

deadnettle = assay: Test D preemergence; assay type: in vivo, Lamium amplexicaule; settings: for Plant response rating: Deadnettle: scale 0 to 100
Excerpt: as §1

chamomile = assay: Test D preemergence; assay type: in vivo, Matricaria inodora; settings: for Plant response rating: Chamomile: scale 0 to 100
Excerpt: as §1

ragweed = assay: Test A preemergence; assay type: in vivo, Ambrosia elatior; settings: 0 to 100 scale (0 no effect, 100 complete control)
How it was run: (§2)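 Weed and crop species in loam–sand blend sprayed preemergence on soil or postemergence at 2–10 cm, one- to two-leaf stage, with chemicals in surfactant-containing solvent. Injury rated visually after ~10 d in greenhouse versus untreated controls on a 0–100 scale (100 = complete control).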

radish, wild [3] = assay: Test D postemergence; assay type: in vivo, Raphanus raphanistrum; settings: scale 0 to 100
Excerpt: as §1

kochia = assay: Test A postemergence; assay type: in vivo, Kochia scoparia; settings: 0 to 100 scale (0 no effect, 100 complete control), approx. 10 d
How it was run: as §2

galium [4] = assay: Test D postemergence; assay type: in vivo, Galium aparine; settings: scale 0 to 100
Excerpt: as §1

pigweed = assay: Test D postemergence; assay type: in vivo, Amaranthus retroflexus; settings: scale 0 to 100
Excerpt: as §1

speedwell = assay: Test D postemergence; assay type: in vivo, Veronica persica; settings: scale 0 to 100
Excerpt: as §1

[5] = 16 g ai/ha, 0 is no effect, 100 is complete control

Fc1ccc(-c2nc(OCC(F)(F)F)n(Cc3ccnc(C(F)(F)F)c3)n2)cc1 [Compound 30]
Plant response rating (0 to 100), Radish, Wild (radish, wild [1]; [5]): 65 | Plant response rating: Radish, Wild (radish, wild [1]; 62 g ai/ha): 95 | Plant response rating: Radish, Wild (radish, wild [1]; 125 g ai/ha): 100 | Plant response rating (0 to 100), Galium (galium [2]; [5]): 70 | Plant response rating: Galium (galium [2]; 62 g ai/ha): 80 | Plant response rating: Galium (galium [2]; 125 g ai/ha): 85 | Plant response rating (0 to 100), Foxtail, Green (foxtail, green; [5]): 85 | Plant response rating: Foxtail, Green (foxtail, green; 62 g ai/ha): 100 | Plant response rating: Foxtail, Green (foxtail, green; 125 g ai/ha): 100 | Plant response rating (0 to 100), Deadnettle (deadnettle; [5]): 85 | Plant response rating: Deadnettle (deadnettle; 31 g ai/ha): 95 | Plant response rating: Deadnettle (deadnettle; 62 g ai/ha): 100 | Plant response rating: Deadnettle (deadnettle; 125 g ai/ha): 100 | Plant response rating (0 to 100), Chamomile (chamomile; [5]): 30 | Plant response rating: Chamomile (chamomile; 31 g ai/ha): 40 | Plant response rating: Chamomile (chamomile; 62 g ai/ha): 100 | Plant response rating: Chamomile (chamomile; 125 g ai/ha): 100 | Plant response rating, Ragweed (ragweed; 125 g ai/ha): 80 | Plant response rating, Ragweed (ragweed; 500 g ai/ha, approx. 10 d): 80 | Plant response rating: Radish, Wild (radish, wild [3]; 16 g ai/ha): 95 | Plant response rating: Radish, Wild (radish, wild [3]; 31 g ai/ha): 95 | Plant response rating: Radish, Wild (radish, wild [3]; 62 g ai/ha): 98 | Plant response rating: Radish, Wild (radish, wild [3]; 125 g ai/ha): 100 | Plant response rating, Kochia (kochia; 125 g ai/ha): 90 | Plant response rating, Kochia (kochia; 500 g ai/ha): 90 | Plant response rating: Galium (galium [4]; 16 g ai/ha): 70 | Plant response rating: Galium (galium [4]; 31 g ai/ha): 75 | Plant response rating: Galium (galium [4]; 62 g ai/ha): 80 | Plant response rating: Galium (galium [4]; 125 g ai/ha): 85 | Plant response rating: Pigweed (pigweed; 16 g ai/ha): 100 | Plant response rating: Pigweed (pigweed; 31 g ai/ha): 100 | Plant response rating: Pigweed (pigweed; 62 g ai/ha): 100 | Plant response rating: Pigweed (pigweed; 125 g ai/ha): 100 | Plant response rating: Speedwell (speedwell; 16 g ai/ha): 100 | Plant response rating: Speedwell (speedwell; 31 g ai/ha): 100 | Plant response rating: Speedwell (speedwell; 62 g ai/ha): 100 | Plant response rating: Speedwell (speedwell; 125 g ai/ha): 100
